Values of other authors in patent publication US7459569B2, “Method of forming iron hydroxypyrone compounds” (Vitra Pharmaceuticals Limited, priority 2002, dated 2008).

Settings: given on an empty stomach

**Q.** For `O=S(=O)([O-])[O-].[Fe+2]` [ferrous sulphate], which absorption rate is on record?
**A.** 30%
